Laboratory results as given in US20180030500A1, “ENRICHMENT AND SELECTIVE CULTURE OF MYCOBACTERIA” (priority 2015, published 2018).
Read-outs that look alike come from different tables or passages of the source.

Columns and labels:
[1] = system: Gram-positive bacteria; conditions: 10 strains, 7 days
[2] = system: Aspergillus fumigatus (Anon); assay: Sensitivity to C-390 in medium W; format: cell-based; parameters: key: NG: no growth; Tr: traces
Procedure: (§1) An evaluation of the sensitivity to C-390 of various microorganisms capable of infecting the airways was carried out. This evaluation was carried out using medium W of example 4, containing a variable concentration of C-390. Table 10 below collates the observations collected with regard to the intensity of growth of the strains tested as a function of the C-390 concentration of the medium. The abbreviations NG (“no growth”) and Tr (“traces”) signify that no growth was observed or only a few not very significant traces.

[3] = system: Burkholderia multivorans (LMG 18824); assay: Sensitivity to C-390 in medium W; format: cell-based; parameters: key: NG: no growth; Tr: traces
Procedure: as §1

[4] = system: Aspergillus flavus (ENV); assay: Sensitivity to C-390 in medium W; format: cell-based; parameters: key: NG: no growth; Tr: traces
Procedure: as §1

[5] = system: Burkholderia multivorans (672832Y); assay: Sensitivity to C-390 in medium W; format: cell-based; parameters: key: NG: no growth; Tr: traces
Procedure: as §1

[6] = system: Burkholderia vietnamiensis (744978N); assay: Sensitivity to C-390 in medium W; format: cell-based; parameters: key: NG: no growth; Tr: traces
Procedure: as §1

[7] = system: Burkholderia pyrrocinia (LMG 21824); assay: Sensitivity to C-390 in medium W; format: cell-based; parameters: key: NG: no growth; Tr: traces
Procedure: as §1

[8] = system: Burkholderia cenocepacia (LMG 18830); assay: Sensitivity to C-390 in medium W; format: cell-based; parameters: key: NG: no growth; Tr: traces; conditions: C-390 32 mg/l in medium W
Procedure: as §1

[9] = system: Burkholderia cepacia (LMG 18821); assay: Sensitivity to C-390 in medium W; format: cell-based; parameters: key: NG: no growth; Tr: traces
Procedure: as §1

[10] = system: Aspergillus terreus (Anon); assay: Sensitivity to C-390 in medium W; format: cell-based; parameters: key: NG: no growth; Tr: traces
Procedure: as §1

[11] = system: Geosmithia argillacea (Anon); assay: Sensitivity to C-390 in medium W; format: cell-based; parameters: key: NG: no growth; Tr: traces
Procedure: as §1

[12] = system: Burkholderia cepacia (LMG 1222); assay: Sensitivity to C-390 in medium W; format: cell-based; parameters: key: NG: no growth; Tr: traces
Procedure: as §1

[13] = system: Burkholderia dolosa (LMG21820); assay: Sensitivity to C-390 in medium W; format: cell-based; parameters: key: NG: no growth; Tr: traces
Procedure: as §1

[14] = system: Scedosporium apiospermum (Anon); assay: Sensitivity to C-390 in medium W; format: cell-based; parameters: key: NG: no growth; Tr: traces
Procedure: as §1

[15] = system: Burkholderia stabilis (LMG18870); assay: Sensitivity to C-390 in medium W; format: cell-based; parameters: key: NG: no growth; Tr: traces
Procedure: as §1

[16] = system: Burkholderia stabilis (716237); assay: Sensitivity to C-390 in medium W; format: cell-based; parameters: key: NG: no growth; Tr: traces
Procedure: as §1

[17] = system: Burkholderia cenocepacia (672834P); assay: Sensitivity to C-390 in medium W; format: cell-based; parameters: key: NG: no growth; Tr: traces
Procedure: as §1

[18] = system: Burkholderia vietnamiensis (LMG 18835); assay: Sensitivity to C-390 in medium W; format: cell-based; parameters: key: NG: no growth; Tr: traces
Procedure: as §1

[19] = system: Burkholderia gladioli (ENV); assay: Sensitivity to C-390 in medium W; format: cell-based; parameters: key: NG: no growth; Tr: traces
Procedure: as §1

[20] = system: Burkholderia contaminans (40007X); assay: Sensitivity to C-390 in medium W; format: cell-based; parameters: key: NG: no growth; Tr: traces
Procedure: as §1

CCN(CC)c1ccc(C2(Cl)c3ccccc3N(c3ccccc3)c3ccccc32)cc1 [Medium C-390, 9-chloro-9-(4′-diethylamino)phenyl-9,10-dihydro-10-phenylacridine]
Tr: intensity of growth ([2]; C-390 0.5 mg/l in medium W) | intensity of growth ([5]; C-390 4 mg/l in medium W) | intensity of growth ([6]; C-390 1 mg/l in medium W) | intensity of growth ([12]; C-390 2 mg/l in medium W) | intensity of growth ([13]; C-390 1 mg/l in medium W) | intensity of growth ([16]; C-390 4 mg/l in medium W) | intensity of growth ([16]; C-390 8 mg/l in medium W) | intensity of growth ([20]; C-390 2 mg/l in medium W)
NG: intensity of growth ([2]; C-390 1 mg/l in medium W) | intensity of growth ([2]; C-390 2 mg/l in medium W) | intensity of growth ([2]; C-390 4 mg/l in medium W) | intensity of growth ([2]; C-390 8 mg/l in medium W) | intensity of growth ([2]; C-390 16 mg/l in medium W) | intensity of growth ([2]; C-390 32 mg/l in medium W) | intensity of growth ([3]; C-390 4 mg/l in medium W) | intensity of growth ([3]; C-390 8 mg/l in medium W) | intensity of growth ([3]; C-390 16 mg/l in medium W) | intensity of growth ([3]; C-390 32 mg/l in medium W) | intensity of growth ([4]; C-390 8 mg/l in medium W) | intensity of growth ([4]; C-390 16 mg/l in medium W) | intensity of growth ([4]; C-390 32 mg/l in medium W) | intensity of growth ([5]; C-390 8 mg/l in medium W) | intensity of growth ([5]; C-390 16 mg/l in medium W) | intensity of growth ([5]; C-390 32 mg/l in medium W) | intensity of growth ([6]; C-390 2 mg/l in medium W) | intensity of growth ([6]; C-390 4 mg/l in medium W) | intensity of growth ([6]; C-390 8 mg/l in medium W) | intensity of growth ([6]; C-390 16 mg/l in medium W) | intensity of growth ([6]; C-390 32 mg/l in medium W) | intensity of growth ([7]; C-390 4 mg/l in medium W) | intensity of growth ([7]; C-390 8 mg/l in medium W) | intensity of growth ([7]; C-390 16 mg/l in medium W) | intensity of growth ([7]; C-390 32 mg/l in medium W) | intensity of growth [8] | intensity of growth ([9]; C-390 16 mg/l in medium W) | intensity of growth ([9]; C-390 32 mg/l in medium W) | intensity of growth ([10]; C-390 1 mg/l in medium W) | intensity of growth ([10]; C-390 2 mg/l in medium W) | intensity of growth ([10]; C-390 4 mg/l in medium W) | intensity of growth ([10]; C-390 8 mg/l in medium W) | intensity of growth ([10]; C-390 16 mg/l in medium W) | intensity of growth ([10]; C-390 32 mg/l in medium W) | intensity of growth ([11]; C-390 0.5 mg/l in medium W) | intensity of growth ([11]; C-390 1 mg/l in medium W) | intensity of growth ([11]; C-390 2 mg/l in medium W) | intensity of growth ([11]; C-390 4 mg/l in medium W) | intensity of growth ([11]; C-390 8 mg/l in medium W) | intensity of growth ([11]; C-390 16 mg/l in medium W) | intensity of growth ([11]; C-390 32 mg/l in medium W) | intensity of growth ([12]; C-390 4 mg/l in medium W) | intensity of growth ([12]; C-390 8 mg/l in medium W) | intensity of growth ([12]; C-390 16 mg/l in medium W) | intensity of growth ([12]; C-390 32 mg/l in medium W) | intensity of growth ([13]; C-390 2 mg/l in medium W) | intensity of growth ([13]; C-390 4 mg/l in medium W) | intensity of growth ([13]; C-390 8 mg/l in medium W) | intensity of growth ([13]; C-390 16 mg/l in medium W) | intensity of growth ([13]; C-390 32 mg/l in medium W) | intensity of growth ([14]; C-390 2 mg/l in medium W) | intensity of growth ([14]; C-390 4 mg/l in medium W) | intensity of growth ([14]; C-390 8 mg/l in medium W) | intensity of growth ([14]; C-390 16 mg/l in medium W) | intensity of growth ([14]; C-390 32 mg/l in medium W) | intensity of growth ([15]; C-390 2 mg/l in medium W) | intensity of growth ([15]; C-390 4 mg/l in medium W) | intensity of growth ([15]; C-390 8 mg/l in medium W) | intensity of growth ([15]; C-390 16 mg/l in medium W) | intensity of growth ([15]; C-390 32 mg/l in medium W) | intensity of growth ([16]; C-390 16 mg/l in medium W) | intensity of growth ([16]; C-390 32 mg/l in medium W) | intensity of growth ([17]; C-390 8 mg/l in medium W) | intensity of growth ([17]; C-390 16 mg/l in medium W) | intensity of growth ([17]; C-390 32 mg/l in medium W) | intensity of growth ([18]; C-390 1 mg/l in medium W) | intensity of growth ([18]; C-390 2 mg/l in medium W) | intensity of growth ([18]; C-390 4 mg/l in medium W) | intensity of growth ([18]; C-390 8 mg/l in medium W) | intensity of growth ([18]; C-390 16 mg/l in medium W) | intensity of growth ([18]; C-390 32 mg/l in medium W) | intensity of growth ([19]; C-390 16 mg/l in medium W) | intensity of growth ([19]; C-390 32 mg/l in medium W) | intensity of growth ([20]; C-390 4 mg/l in medium W) | intensity of growth ([20]; C-390 8 mg/l in medium W) | intensity of growth ([20]; C-390 16 mg/l in medium W) | intensity of growth ([20]; C-390 32 mg/l in medium W)
0: Number of strains having shown growth ([1]; selective agent 32 mg/l in medium L) | Number of strains having shown growth ([1]; selective agent 64 mg/l in medium L) | Number of strains having shown growth ([1]; selective agent 128 mg/l in medium L)
